Read-outs that look alike come from different tables or passages of the source.
Legend:
hGLP-1R = hGLP-1R (Homo sapiens, UniProt P43220); experiment: Functional cAMP formation (HTRF) in HEK-293 clonal cells expressing hGLP-1R, 0.1% bovine casein, without or with 1.0% human serum albumin; assay type: cell-based; set-up: expressed in transfected cells; conditions: for EC50: geometric mean
Procedure, shortened: (§1)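 Cells were stimulated with peptide for 30 min at 37° C, then intracellular cAMP was measured by competitive HTRF (665/620 nm ratio) and converted to nM using a cAMP standard curve. Relative EC50 and Emax came from four-parameter logistic fits of percent maximal response against peptide concentration.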

hGCGR = biological target: T1, hGCGR (Homo sapiens, UniProt P47871); experiment: Functional cAMP formation (HTRF) in HEK-293 clonal cells expressing hGCGR, 0.1% bovine casein, without or with 1.0% human serum albumin; assay type: cell-based; conditions: geometric mean
T1 construct: expressed in transfected cells
T1 sequence (P47871 26-477): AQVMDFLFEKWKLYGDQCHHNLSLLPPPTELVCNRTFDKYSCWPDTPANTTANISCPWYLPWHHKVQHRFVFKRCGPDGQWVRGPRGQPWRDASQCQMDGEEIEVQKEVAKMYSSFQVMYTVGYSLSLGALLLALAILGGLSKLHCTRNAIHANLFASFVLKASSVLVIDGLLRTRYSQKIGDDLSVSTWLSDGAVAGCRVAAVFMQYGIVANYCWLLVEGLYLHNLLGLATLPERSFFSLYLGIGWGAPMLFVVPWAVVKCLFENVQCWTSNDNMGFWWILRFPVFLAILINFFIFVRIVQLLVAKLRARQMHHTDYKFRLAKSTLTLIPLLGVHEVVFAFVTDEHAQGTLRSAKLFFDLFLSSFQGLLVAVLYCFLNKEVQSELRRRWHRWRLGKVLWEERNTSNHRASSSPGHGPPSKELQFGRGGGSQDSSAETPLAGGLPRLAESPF
Procedure, shortened: as §1

hGIPR = biological target: T2, hGIPR (Homo sapiens, UniProt P48546); experiment: Functional cAMP formation (HTRF) in HEK-293 clonal cells expressing hGIPR, 0.1% bovine casein, without or with 1.0% human serum albumin; assay type: cell-based; conditions: for EC50: geometric mean
T2 construct: expressed in transfected cells
T2 sequence (P48546 22-466): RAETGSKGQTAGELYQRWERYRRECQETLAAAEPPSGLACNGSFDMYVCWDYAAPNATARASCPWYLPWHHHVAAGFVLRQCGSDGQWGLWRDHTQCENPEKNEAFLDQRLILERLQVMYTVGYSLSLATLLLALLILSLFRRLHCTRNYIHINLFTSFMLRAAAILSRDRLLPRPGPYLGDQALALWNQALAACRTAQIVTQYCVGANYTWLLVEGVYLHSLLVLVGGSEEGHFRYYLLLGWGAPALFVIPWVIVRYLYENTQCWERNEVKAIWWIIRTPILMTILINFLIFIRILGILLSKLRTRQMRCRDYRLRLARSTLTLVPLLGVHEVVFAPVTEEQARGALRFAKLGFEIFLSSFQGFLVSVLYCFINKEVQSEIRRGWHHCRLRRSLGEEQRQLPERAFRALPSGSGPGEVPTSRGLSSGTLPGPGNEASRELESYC
Procedure, shortened: as §1

[1] = biological target: T3, human GLP-1 receptor (hGLP-1R) (Homo sapiens, UniProt P43220); experiment: [125I]-GLP-1 binding, SPA with membranes of HEK293 cells expressing hGLP-1R
T3 construct: expressed in transfected cells; crude membranes
T3 sequence (P43220 24-463): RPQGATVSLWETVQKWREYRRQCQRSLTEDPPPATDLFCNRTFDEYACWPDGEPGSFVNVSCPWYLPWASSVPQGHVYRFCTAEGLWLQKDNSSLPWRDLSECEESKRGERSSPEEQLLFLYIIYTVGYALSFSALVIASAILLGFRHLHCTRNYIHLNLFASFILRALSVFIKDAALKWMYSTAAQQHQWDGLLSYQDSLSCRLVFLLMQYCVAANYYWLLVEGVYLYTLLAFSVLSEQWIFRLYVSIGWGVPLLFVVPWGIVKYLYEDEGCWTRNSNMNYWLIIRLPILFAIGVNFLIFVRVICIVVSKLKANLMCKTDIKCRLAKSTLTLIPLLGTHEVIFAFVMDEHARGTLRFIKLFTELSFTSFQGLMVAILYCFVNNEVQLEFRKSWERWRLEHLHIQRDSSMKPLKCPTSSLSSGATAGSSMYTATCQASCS
Protocol: Two methods are used for the preparation of crude cell membranes.
Method 1: Frozen cell pellets are lysed on ice in hypotonic buffer containing 50 mM Tris HCl, pH 7.5, and Roche Complete™ Protease Inhibitors with EDTA. […] The homogenate is centrifuged at 4° C. at 1100 × g for 10 minutes. The supernatant is collected and stored on ice while the pellets are resuspended in homogenization buffer and rehomogenized as described above. The homogenate is centrifuged at 1100 × g for 10 minutes. The second supernatant is combined with the first supernatant and centrifuged at 35000 × g for 1 hour at 4° C. The resulting membrane pellet is resuspended in homogenization buffer containing protease inhibitors at approximately 1 to 3 mg/mL, quick frozen in liquid nitrogen and stored as aliquots in a -80° C. freezer until use.
The homogenate is centrifuged at 4° C. at 1800 × g for 15 minutes. The supernatant is collected and stored on ice while the pellets are resuspended in homogenization buffer (without DNAse I) and rehomogenized as described above. The homogenate is centrifuged at 1800 × g for 15 minutes. The second supernatant is combined with the first supernatant and centrifuged an additional time at 1800 × g for 15 minutes. The overall supernatant is then centrifuged at 25000 × g for 30 minutes at 4° C. The resulting membrane pellet is resuspended in homogenization buffer (without DNAse I) containing protease inhibitors at approximately 1 to 3 mg/mL and stored as aliquots in a -80° C. freezer until use.
The human GLP-1 receptor binding assay is performed using an SPA format with WGA beads. The binding buffer contains 25 mM HEPES, pH 7.4, 2.5 mM CaCl2, 1 mM MgCl2, 0.1% (w/v) bacitracin, 0.003% (w/v) TWEEN®-20, and Roche Complete™ Protease Inhibitors without EDTA.
Raw CPM data for concentration curves of peptides, Gcg, GLP-1, or GIP are converted to percent inhibition by subtracting nonspecific binding (binding in the presence of excess unlabeled Gcg, GLP-1, or GIP, respectively) from the individual CPM values and dividing by the total binding signal, also corrected by subtracting nonspecific binding. Data are analyzed using four-parameter (curve maximum, curve minimum, IC50, Hill slope) nonlinear regression routines (Genedata Screener, version 12.0.4, Genedata AG, Basal, Switzerland). […] Values for Ki are reported as the geometric mean, with error expressed as the standard error of the mean (SEM) and n is equal to the number of independent replicates (determined in assays performed on different days). Geometric Means are calculated as follows: […]
The Ki Ratio (Ki for native control peptide/Ki for test compound) at each receptor and each species is calculated. The Ki Ratio is a rapid indication of the apparent affinity of a peptide compared to the native control peptide.
n=⅟x means that only one value out of the total number of replicates (x) is used to express the mean. SEM is only calculated when n=2 or greater non-qualified results exist. Means are expressed as GeoMetric means with the standard error of the mean (SEM) and the number of replicates (n) indicated in parenthesis.

[2] = 0.1% bovine casein and 1.0% human serum albumin, 37° C., read-out: hGLP-1R EC50, nM (SEM, n)
[3] = cAMP, incubated at 37° C., 0.1% bovine casein (no human serum albumin), read-out: hGLP-1R EC50, nM (SEM, n)
[4] = 0.1% bovine casein and 1.0% human serum albumin, 37° C., read-out: hGCGR EC50, nM (SEM, n)
[5] = cAMP, incubated at 37° C., 0.1% bovine casein (no human serum albumin), read-out: hGCGR EC50, nM (SEM, n)
[6] = 0.1% bovine casein and 1.0% human serum albumin, 37° C., read-out: hGIPR EC50, nM (SEM, n)
[7] = HEK293, 0.1% bovine casein and 1.0% human serum albumin, 37° C., percent of maximal response to GIP(1-42)NH2, read-out: hGIPR Emax, % ± SEM
[8] = cAMP, incubated at 37° C., 0.1% bovine casein (no human serum albumin), read-out: hGIPR EC50, nM (SEM, n)
[9] = human GLP-1R, geometric mean (SEM, n), read-out: Binding Affinity Ki, nM (SEM, n) hGLP-1R

hGLP-1R, sequence (P43220 24-463): as above

| SMILES | EC50 (hGLP-1R; [2]) [nM] | Emax (hGLP-1R; HEK293, 0.1% bovine casein and 1.0% human serum albumin, 37° C., percent of maximal response to GLP-1(7-36)NH2, read-out: hGLP-1R Emax, % ± SEM) [%] | EC50 (hGLP-1R; [3]) [nM] | EC50 (hGCGR; [4]) [nM] | EC50 (hGCGR; [5]) [nM] | EC50 (hGIPR; [6]) [nM] | Emax (hGIPR; [7]) [%] | Emax (hGIPR; HEK293, percent of maximal response to GIP(1-42)NH2, 37° C., 0.1% bovine casein, arithmetic mean, read-out: hGIPR Emax, % ± SEM) [%] | EC50 (hGIPR; [8]) [nM] | Ki [1, 9] [nM] | EC50 (hGLP-1R; hGLP-1R EC50, nM (SEM, n), cAMP, incubated at 37° C., 0.1% bovine casein (no human serum albumin)) [nM] | EC50 (hGCGR; hGCGR EC50, nM (SEM, n), 0.1% bovine casein and 1.0% human serum albumin, 37° C.) [nM] | EC50 (hGCGR; hGCGR EC50, nM (SEM, n), cAMP, incubated at 37° C., 0.1% bovine casein (no human serum albumin)) [nM] | Emax (hGIPR; HEK293, read-out: hGIPR Emax, % ± SEM, 0.1% bovine casein and 1.0% human serum albumin, 37° C., percent of maximal response to GIP(1-42)NH2) [%] | Emax (hGIPR; HEK293, read-out: hGIPR Emax, % ± SEM, percent of maximal response to GIP(1-42)NH2, 37° C., 0.1% bovine casein, arithmetic mean) [%] | EC50 (hGIPR; hGIPR EC50, nM (SEM, n), cAMP, incubated at 37° C., 0.1% bovine casein (no human serum albumin)) [nM] | Ki [1] [nM] |
| --- | --- | --- | --- | --- | --- | --- | --- | --- | --- | --- | --- | --- | --- | --- | --- | --- | --- |
| CC[C@H](C)[C@H](NC(=O)[C@H](CCCN)NC(=O)[C@H](CC(=O)O)NC(=O)[C@H](CC(C)C)NC(=O)[C@](C)(CC(C)C)NC(=O)[C@@H](NC(=O)[C@H](CO)NC(=O)[C@H](Cc1ccncc1)NC(=O)[C@H](CC(=O)O)NC(=O)[C@H](CO)NC(=O)[C@@H](NC(=O)[C@](C)(Cc1ccccc1F)NC(=O)[C@@H](NC(=O)CNC(=O)[C@H](CCC(=O)O)NC(=O)C(C)(C)NC(=O)[C@@H](N)Cc1ccc(O)cc1)[C@@H](C)O)[C@@H](C)O)[C@@H](C)CC)C(=O)N[C@@H](C)C(=O)N[C@@H](CCC(N)=O)C(=O)NC(C)(C)C(=O)N[C@@H](CCCCNC(=O)COCCOCCNC(=O)COCCOCCNC(=O)CC[C@H](NC(=O)CCCCCCCCCCCCC(=O)O)C(=O)O)C(=O)N[C@@H](Cc1ccccc1)C(=O)N[C@H](C(=O)N[C@H](CCC(=O)O)C(=O)N[C@@](C)(Cc1ccc(O)cc1)C(=O)N[C@@H](CC(C)C)C(=O)N[C@H](C(=O)N[C@@H](CCCCNC(=O)COCCOCCNC(=O)COCCOCCNC(=O)CC[C@H](NC(=O)CCCCCCCCCCCCC(=O)O)C(=O)O)C(=O)NCC(=O)NCC(=O)N1CCC[C@H]1C(=O)N[C@@H](CO)C(=O)N[C@@H](CO)C(=O)NCC(=O)N[C@@H](C)C(=O)N1CCC[C@H]1C(=O)N1CCC[C@H]1C(=O)N1CCC[C@H]1C(=O)N[C@@H](CO)C(N)=O)[C@@H](C)CC)[C@@H](C)CC [Example 73] | 56.2 | 109 | 0.437 | > 9950 | > 9950 | 2.16 | 80.2 | 97.1 ± 2.7 | 0.0207 | 3.38 |  |  |  |  |  |  |  |
| CCCCCCCCCCCC(=O)N[C@@H](CCC(=O)NCCOCCOCC(=O)NCCOCCOCC(=O)NCCCC[C@H](NC(=O)[C@H](CCCN)NC(=O)[C@H](CC(=O)O)NC(=O)[C@H](CC(C)C)NC(=O)[C@](C)(CC(C)C)NC(=O)[C@@H](NC(=O)[C@H](CO)NC(=O)[C@H](Cc1ccncc1)NC(=O)[C@H](CC(=O)O)NC(=O)[C@H](CO)NC(=O)[C@@H](NC(=O)[C@](C)(Cc1ccccc1F)NC(=O)[C@@H](NC(=O)CNC(=O)[C@H](CCC(=O)O)NC(=O)C(C)(C)NC(=O)[C@@H](N)Cc1ccc(O)cc1)[C@@H](C)O)[C@@H](C)O)[C@@H](C)CC)C(=O)N[C@@H](C)C(=O)N[C@@H](CCC(N)=O)C(=O)NC(C)(C)C(=O)N[C@@H](CCCCNC(=O)COCCOCCNC(=O)COCCOCCNC(=O)CC[C@H](NC(=O)CCCCCCCCCCC)C(=O)O)C(=O)N[C@@H](Cc1ccccc1)C(=O)N[C@H](C(=O)N[C@H](CCC(=O)O)C(=O)N[C@@](C)(Cc1ccc(O)cc1)C(=O)N[C@@H](CC(C)C)C(=O)N[C@H](C(=O)N[C@@H](CCC(=O)O)C(=O)NCC(=O)NCC(=O)N1CCC[C@H]1C(=O)N[C@@H](CO)C(=O)N[C@@H](CO)C(=O)NCC(=O)N[C@@H](C)C(=O)N1CCC[C@H]1C(=O)N1CCC[C@H]1C(=O)N1CCC[C@H]1C(=O)N[C@@H](CO)C(N)=O)[C@@H](C)CC)[C@@H](C)CC)C(=O)O [Example 137] | 5.02 |  | 0.134 | > 9950 | > 9950 | 0.728 | 90.3 ± 0.387 |  | 0.0116 | 0.25 |  |  |  |  |  |  |  |
| CC[C@H](C)[C@H](NC(=O)[C@H](CCCN)NC(=O)[C@H](CC(=O)O)NC(=O)[C@H](CC(C)C)NC(=O)[C@](C)(CC(C)C)NC(=O)[C@@H](NC(=O)C(C)(C)NC(=O)[C@H](Cc1ccncc1)NC(=O)[C@H](CC(=O)O)NC(=O)[C@H](CO)NC(=O)[C@@H](NC(=O)[C@](C)(Cc1ccccc1F)NC(=O)[C@@H](NC(=O)CNC(=O)[C@H](CCC(=O)O)NC(=O)C(C)(C)NC(=O)[C@@H](N)Cc1ccc(O)cc1)[C@@H](C)O)[C@@H](C)O)[C@@H](C)CC)C(=O)N[C@@H](C)C(=O)N[C@@H](CCC(N)=O)C(=O)NC(C)(C)C(=O)N[C@@H](CCC(=O)O)C(=O)N[C@@H](Cc1ccccc1)C(=O)N[C@H](C(=O)N[C@@H](CCCCNC(=O)COCCOCCNC(=O)COCCOCCNC(=O)CC[C@H](NC(=O)CCCCCCCCCOc1ccc(C(=O)O)cc1)C(=O)O)C(=O)N[C@@](C)(Cc1ccc(O)cc1)C(=O)N[C@@H](CC(C)C)C(=O)N[C@H](C(=O)N[C@@H](CCCCNC(=O)COCCOCCNC(=O)COCCOCCNC(=O)CC[C@H](NC(=O)CCCCCCCCCOc1ccc(C(=O)O)cc1)C(=O)O)C(=O)NCC(=O)NCC(=O)N1CCC[C@H]1C(=O)N[C@@H](CO)C(=O)N[C@@H](CO)C(=O)NCC(=O)N[C@@H](C)C(=O)N1CCC[C@H]1C(=O)N1CCC[C@H]1C(=O)N1CCC[C@H]1C(=O)N[C@@H](CO)C(N)=O)[C@@H](C)CC)[C@@H](C)CC [Example 246] |  |  |  |  |  |  |  |  |  |  | 0.441 | > 9950 | > 9950 | 91 | 96.9 | 0.0223 | 0.557 |

Source: patent US20230265151A1, “GIP/GLP1 CO-AGONIST COMPOUNDS” (priority 2020, published 2023)
